Where two headings read alike, the source gives them in different places.
What was measured:
[1] = target: T1, Recombinant rhinovirus 3C protease, serotype 14 (Human rhinovirus 14, UniProt P03303); experiment: Inhibition of rhinovirus 3C protease (FRET assay, kobs/[I]), serotype 14; type: biochemical; conditions: pH 7.6; HRV-14 3C protease; read-out: kobs/[I] (3C protease inhibition activity)
T1 construct: Recombinant rhinovirus 3C proteases; made in house
Outline: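 Enzyme-start FRET assay with ~1 μM DABCYL/EDANS peptide substrate and 50-100 nM recombinant protease in 50 mM tris pH 7.6, 1 mM EDTA, 2% DMSO. Cleavage followed as fluorescence increase; kobs/[I] derived from progress curves.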

[2] = system: strains of human rhinovirus (HRV); experiment: Antirhinoviral H1-HeLa cell culture assay (XTT cell protection, EC50), other HRV strains; type: cell-based, human rhinovirus in H1-HeLa cells; conditions: read-out: EC50
Outline: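 H1-HeLa cells infected, or mock-infected, were incubated with compounds for two days. Cell protection measured by XTT/PMS formazan absorbance at 450/650 nm; TI taken as CC50 divided by EC50.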

[3] = system: echovirus 9 (ECHO-9); experiment: Antiviral cell culture assay (EC50), echovirus 9; type: cell-based; conditions: Enterovirus B; ECHO9
[4] = Cytotoxicity (CC50), cell line not stated; type: cell-based
[5] = system: H1-HeLa cells; experiment: Cytotoxicity (CC50) in mock-infected H1-HeLa cells, XTT dye reduction; type: cell-based, human
Outline: (§1)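 H1-HeLa cells mock-infected, read by XTT/PMS formazan at 450/650 nm.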

[6] = as above; type: cell-based, human; conditions: human, H1-HeLa cells, mock-infected; HRV-14
Outline: as §1

[7] = system: HRV-14; experiment: Antirhinoviral H1-HeLa cell culture assay (XTT cell protection, EC50), HRV-14; type: cell-based, human rhinovirus (HRV) serotype-14 in H1-HeLa cells; conditions: Rhinovirus B, HRV14, H1-HeLa
Outline: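 H1-HeLa cells were infected with HRV-14 at m.o.i. 0.13, or mock-infected, and incubated with compound for two days. Cell protection was read by XTT/PMS formazan absorbance at 450/650 nm to give EC50. CC50 came from mock-infected cells, and TI = CC50/EC50.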

[8] = system: coxsackievirus B2 (CVB2); experiment: Antiviral cell culture assay (EC50), coxsackievirus B2; type: cell-based; conditions: Enterovirus B
[9] = system: coxsackievirus B5 (CVB5); experiment: Antiviral cell culture assay (EC50), coxsackievirus B5; type: cell-based; conditions: Enterovirus B

T1 sequence (P03303 1538-1719): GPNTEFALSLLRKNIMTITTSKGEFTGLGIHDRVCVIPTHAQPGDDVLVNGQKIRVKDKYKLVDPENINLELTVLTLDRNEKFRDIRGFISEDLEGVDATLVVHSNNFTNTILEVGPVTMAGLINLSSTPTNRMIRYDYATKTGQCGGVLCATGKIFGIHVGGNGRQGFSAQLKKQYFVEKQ

**Q.** For CC[C@@H](C(=O)N[C@H](/C=C/C(=O)OC1CCC1)C[C@@H]1CCNC1=O)n1cccc(NC(=O)c2cc(C)on2)c1=O [Compound 59, trans-(2′S,3′″″S,4S)-4-[2′-(3″-{[1′″-(5″″-Methylisoxazol-3″″-yl)methanoyl]amino}-2′″oxo-2′″H-pyridin-1′″-yl)butanoylamino]-5-(2′″″-oxopyrrolidin-3′″″-yl)pent-2-enoic Acid Cyclobutyl Ester], which kinact/KI [1] is on record?
**A.** 170000 M⁻¹ s⁻¹

**Q.** And the EC50 ([2]; H1-HeLa, HRV-1A)?
**A.** 84 nM

**Q.** What about the EC50 ([2]; H1-HeLa, HRV-2) of the same molecule?
**A.** 49 nM

**Q.** What about the EC50 ([2]; H1-HeLa, HRV-23) of the same molecule?
**A.** 37 nM

**Q.** And the EC50 ([2]; Human rhinovirus sp., H1-HeLa, HRV-Hanks)?
**A.** 83 nM

**Q.** And the EC50 ([2]; Human rhinovirus sp., HRV3, H1-HeLa, HRV-3)?
**A.** 33 nM

**Q.** And the EC50 ([2]; Human rhinovirus sp., HRV9, H1-HeLa, HRV-9)?
**A.** 70 nM

**Q.** And the EC50 ([2]; Human rhinovirus sp., HRV10, H1-HeLa, HRV-10)?
**A.** 58 nM

**Q.** And the EC50 ([2]; Human rhinovirus sp., HRV11, H1-HeLa, HRV-11)?
**A.** 14 nM

**Q.** And the EC50 ([2]; Human rhinovirus sp., HRV13, H1-HeLa, HRV-13)?
**A.** 12 nM

**Q.** And the EC50 ([2]; Human rhinovirus sp., HRV16, H1-HeLa, HRV-16)?
**A.** 105 nM

**Q.** What about the EC50 ([2]; Human rhinovirus sp., HRV19, H1-HeLa, HRV-19) of the same molecule?
**A.** 44 nM

**Q.** What about the EC50 ([2]; Human rhinovirus sp., HRV25, H1-HeLa, HRV-25) of the same molecule?
**A.** 42 nM

**Q.** What about the EC50 ([2]; Human rhinovirus sp., HRV39, H1-HeLa, HRV-39) of the same molecule?
**A.** 122 nM

**Q.** And the EC50 ([2]; Human rhinovirus sp., HRV78, H1-HeLa, HRV-78)?
**A.** 73 nM

**Q.** And the EC50 [3]?
**A.** 40 nM

**Q.** What about the CC50 ([4]; CVB2) of the same molecule?
**A.** > 10000 nM

**Q.** And the CC50 ([4]; CVB5)?
**A.** > 10000 nM

**Q.** And the CC50 ([4]; ECHO9)?
**A.** > 10000 nM

**Q.** What about the CC50 ([5]; HRV-1A) of the same molecule?
**A.** > 10000 nM

**Q.** What about the CC50 ([5]; HRV-2) of the same molecule?
**A.** > 10000 nM

**Q.** What about the CC50 ([5]; HRV-3) of the same molecule?
**A.** > 10000 nM

**Q.** What about the CC50 ([5]; HRV-9) of the same molecule?
**A.** > 10000 nM

**Q.** And the CC50 ([5]; HRV-10)?
**A.** > 10000 nM

**Q.** What about the CC50 ([5]; HRV-11) of the same molecule?
**A.** > 10000 nM

**Q.** And the CC50 ([5]; HRV-13)?
**A.** > 10000 nM

**Q.** What about the CC50 ([5]; HRV-16) of the same molecule?
**A.** > 10000 nM

**Q.** And the CC50 ([5]; HRV-19)?
**A.** > 10000 nM

**Q.** What about the CC50 ([5]; HRV-23) of the same molecule?
**A.** > 10000 nM

**Q.** And the CC50 ([5]; HRV-25)?
**A.** > 10000 nM

**Q.** What about the CC50 ([5]; HRV-39) of the same molecule?
**A.** > 10000 nM

**Q.** What about the CC50 ([5]; HRV-78) of the same molecule?
**A.** > 10000 nM

**Q.** What about the CC50 ([5]; HRV-Hanks) of the same molecule?
**A.** > 10000 nM

**Q.** What about the CC50 at 2 days [6] of the same molecule?
**A.** > 10000 nM

**Q.** What about the EC50 [7] of the same molecule?
**A.** 20 nM

**Q.** What about the EC50 [8] of the same molecule?
**A.** 50 nM

**Q.** And the EC50 [9]?
**A.** 40 nM
